Measured values as given in BindingDB's records for doi:10.1021/acs.jmedchem.0c02247 (Nanjing University of Chinese Medicine, 2021).
pIC50: −log10 of the molar value.

What was measured:
[1] = Inhibition of TEL-FLT3 D835V mutant (unknown origin) expressed in mouse BaF3 cells assessed as antiproliferative activity incubated for 72 hrs by CCK8 assay
[2] = Inhibition of FLT3 ITD mutant (unknown origin) expressed in mouse BaF3 cells assessed as antiproliferative activity incubated for 72 hrs by CCK8 assay
[3] = Inhibition of FLT3 ITD/D835V double mutant (unknown origin) expressed in mouse BaF3 cells assessed as antiproliferative activity incubated for 72 hrs by CCK8 assay

Cc1c(NC(=O)CCN2CCCC2)c[nH]c1/C=C1\C(=O)Nc2ccc(F)cc21
pIC50 [1]: 7.52 | pIC50 [2]: 7.89 | pIC50 [3]: 7.57
